Experimental data: US9725463B2, “Substituted heterocyclic compounds as CRAC modulators” (LUPIN LIMITED, priority 2013, dated 2017)

The compounds below were run on IL-2 secretion by Jurkat T cells (assay: Inhibition of IL-2 secretion). Settings: Homo sapiens; Jurkat T cells stimulated with PHA, 20 to 24 hours, IL-2 by ELISA.
Format: cell-based
Method: The CRAC channel modulatory activity of the compounds were thus evaluated by measuring the secretion of IL-2 by antigen stimulated T-cells in vitro. Alternatively, such activity can also be evaluated by assay methods known to one skilled in the art.
Inhibition of IL-2 secretion: Jurkat T cells were seeded at a density of 0.5 to 1 million cells per well in RPMI medium. Test compounds from this invention were added to the cells at different concentrations. This was followed by the addition of PHA, a T cell mitogen after 10 minutes. The cells were then incubated for 20 to 24 hours in a CO2 incubator at 37° C. After incubation with the compounds, cells were centrifuged, the supernatant was collected and processed for ELISA to quantitate the amount of IL-2 secreted. A commercial ELISA kit (R&D Systems, Inc. Minneapolis, Minn., USA) was used to estimate the IL-2 concentrations. Amount of IL-2 secreted by cells stimulated with PHA was considered as a 100% maximal signal and the decrease in amount of IL-2 secreted by cells treated with the test compounds was expressed as percent inhibition of the maximal signal. The dose response data was analyzed using 4-parametric sigmoidal dose response (variable slope) curve-fit.

| IC50 | SMILES |
| --- | --- |
| < 25 nM | Cc1cc2c(cc1-c1ccc(NC(=O)c3c(F)cccc3F)cc1)oc(=O)n2C [Example 56, N-(4-(3,5-Dimethyl-2-oxo-2,3-dihydrobenzo [d]oxazol-6-yl)phenyl)-2,6-difluorobenzamide] |
| < 25 nM | Cc1cc2oc(=O)n(C)c2cc1-c1ccc(C(=O)Nc2c(F)cncc2F)s1 [Example 60, N-(3,5-Difluoropyridin-4-yl)-5-(3,6-dimethyl-2-oxo-2,3-dihydrobenzo [d]oxazol-5-yl) thiophene-2-carboxamide] |
| 25 to 50 nM | Cc1cc2oc(=O)n(C)c2cc1-c1ccc(C(=O)Nc2c(Cl)cncc2Cl)s1 [Example 61, N-(3,5-Dichloropyridin-4-yl)-5-(3,6-dimethyl-2-oxo-2,3-dihydrobenzo [d]oxazol-5-yl)thiophene-2-carboxamide] |
| 25 to 50 nM | CCc1cc2c(cc1-c1ccc(NC(=O)c3c(F)cccc3F)nc1)oc(=O)n2C [Example 69, N-(5-(5-Ethyl-3-methyl-2-oxo-2,3-dihydrobenzo [d]oxazol-6-yl)pyridin-2-yl)-2,6-difluoro benzamide] |
| < 25 nM | CCc1cc2c(cc1-c1cnc(NC(=O)c3c(F)cccc3F)cn1)oc(=O)n2C [Example 70, N-(5-(5-Ethyl-3-methyl-2-oxo-2,3-dihydrobenzo [d]oxazol-6-yl)pyrazin-2-yl)-2,6-difluoro benzamide] |
| 50 to 100 nM | Cn1c(=O)oc2cc(-c3cnc(NC(=O)c4c(F)cccc4F)cn3)c(C3CC3)cc21 [Example 72, N-(5-(5-Cyclopropyl-3-methyl-2-oxo-2,3-dihydrobenzo [d]oxazol-6-yl)pyrazin-2-yl)-2,6-difluorobenzamide] |
| 25 to 50 nM | CCc1cc2c(cc1-c1ccc(C(=O)Nc3c(F)cccc3F)s1)oc(=O)n2C [Example 73, N-(2,6-Difluorophenyl)-5-(5-ethyl-3-methyl-2-oxo-2,3-dihydrobenzo [d]oxazol-6-yl) thiophene-2-carboxamide] |
| 50 to 100 nM | Cn1c(=O)oc2cc(-c3ccc(C(=O)Nc4c(F)cccc4F)s3)c(C3CC3)cc21 [Example 74, 5-(5-Cyclopropyl-3-methyl-2-oxo-2,3-dihydrobenzo [d]oxazol-6-yl)-N-(2,6-difluorophenyl) thiophene-2-carboxamide] |
| 25 to 50 nM | Cc1cc2c(cc1-c1ccc(C(=O)Nc3c(F)cccc3F)s1)oc(=O)n2C [Example 75, N-(2,6-Difluorophenyl)-5-(3,5-dimethyl-2-oxo-2,3-dihydrobenzo[d]oxazol-6-yl)thiophene-2-carboxamide] |
| 25 to 50 nM | Cc1cc2oc(=O)n(C(F)F)c2cc1-c1ccc(NC(=O)c2c(F)cccc2F)cn1 [Example 76, N-(6-(3-(Difluoromethyl)-6-methyl-2-oxo-2,3-dihydrobenzo[d]oxazol-5-yl)pyridin-3-yl)-2,6-difluorobenzamide] |
| < 25 nM | Cc1cc2oc(=O)n(C(F)F)c2cc1-c1ccc(NC(=O)c2c(F)cccc2F)nc1 [Example 77, N-(5-(3-(Difluoromethyl)-6-methyl-2-oxo-2,3-dihydrobenzo[d]oxazol-5-yl)pyridin-2-yl)-2,6 difluorobenzamide] |
| < 25 nM | Cc1cc2oc(=O)n(C(F)F)c2cc1-c1cnc(NC(=O)c2c(F)cccc2F)cn1 [Example 78, N-(5-(3-(Difluoromethyl)-6-methyl-2-oxo-2,3-dihydrobenzo[d]oxazol-5-yl)pyrazin-2-yl)-2,6-difluorobenzamide] |
| 50 to 100 nM | CCc1cc2oc(=O)n(C)c2cc1-c1cnc(NC(=O)c2c(F)cccc2F)cn1 [Example 80, N-(5-(6-Ethyl-3-methyl-2-oxo-2,3-dihydrobenzo[d]oxazol-5-yl)pyrazin-2-yl)-2,6-difluoro benzamide] |
| 50 to 100 nM | CCc1cc2oc(=O)n(C)c2cc1-c1ccc(NC(=O)c2c(F)cccc2F)cn1 [Example 81, N-(6-(6-Ethyl-3-methyl-2-oxo-2,3-dihydrobenzo [d]oxazol-5-yl)pyridin-3-yl)-2,6-difluoro benzamide] |
| < 25 nM | CCc1cc2oc(=O)n(C)c2cc1-c1ccc(NC(=O)c2c(F)cccc2F)nc1 [Example 82, N-(5-(6-Ethyl-3-methyl-2-oxo-2,3-dihydrobenzo[d]oxazol-5-yl)pyridin-2-yl)-2,6-difluoro benzamide] |
| 25 to 50 nM | Cn1c(=O)oc2cc(C3CC3)c(-c3ccc(NC(=O)c4c(F)cccc4F)nc3)cc21 [Example 83, N-(5-(6-Cyclopropyl-3-methyl-2-oxo-2,3-dihydrobenzo [d]oxazol-5-yl)pyridin-2-yl)-2,6-difluorobenzamide] |
| 25 to 50 nM | Cn1c(=O)oc2cc(C3CC3)c(-c3cnc(NC(=O)c4c(F)cccc4F)cn3)cc21 [Example 84, N-(5-(6-Cyclopropyl-3-methyl-2-oxo-2,3-dihydrobenzo [d]oxazol-5-yl)pyrazin-2-yl)-2,6-difluorobenzamide] |
| < 25 nM | CCc1cc2oc(=O)n(C)c2cc1-c1ccc(NC(=O)c2c(F)cccc2F)cc1 [Example 85, N-(4-(6-Ethyl-3-methyl-2-oxo-2,3-dihydrobenzo [d]oxazol-5-yl)phenyl)-2,6-difluorobenzamide] |
| 25 to 50 nM | Cn1c(=O)oc2cc(-c3cnc(NC(=O)c4c(F)cccc4F)cn3)c(C3CC3)nc21 [Example 86, N-(5-(5-Cyclopropyl-3-methyl-2-oxo-2,3-dihydrooxazolo[4,5-b]pyridin-6-yl)pyrazin-2-yl)-2,6-difluorobenzamide] |
| < 25 nM | CCc1cc2oc(=O)n(C)c2cc1-c1ccc(C(=O)Nc2c(F)cccc2F)s1 [Example 88, N-(2,6-Difluorophenyl)-5-(6-ethyl-3-methyl-2-oxo-2,3-dihydrobenzo [d]oxazol-5-yl) thiophene-2-carboxamide] |
| < 25 nM | Cn1c(=O)oc2cc(C3CC3)c(-c3ccc(C(=O)Nc4c(F)cccc4F)s3)cc21 [Example 89, 5-(6-Cyclopropyl-3-methyl-2-oxo-2,3-dihydrobenzo[d]oxazol-5-yl)-N-(2,6-difluorophenyl) thiophene-2-carboxamide] |
| 25 to 50 nM | CCc1cc2c(cc1-c1ccc(C(=O)Nc3c(F)cncc3F)cc1)oc(=O)n2C [Example 90, N-(3,5-Difluoropyridin-4-yl)-4-(5-ethyl-3-methyl-2-oxo-2,3-dihydrobenzo [d]oxazol-6-yl) benzamide] |
| < 25 nM | CCc1cc2oc(=O)n(C)c2cc1-c1ccc(C(=O)Nc2c(F)cncc2F)cc1 [Example 92, N-(3,5-Difluoropyridin-4-yl)-4-(6-ethyl-3-methyl-2-oxo-2,3-dihydrobenzo [d]oxazol-5-yl) benzamide] |
| < 25 nM | Cn1c(=O)oc2cc(C3CC3)c(-c3ccc(C(=O)Nc4c(F)cncc4F)cc3)cc21 [Example 93, 4-(6-Cyclopropyl-3-methyl-2-oxo-2,3-dihydrobenzo[d]oxazol-5-yl)-N-(3,5-difluoropyridin-4-yl)benzamide] |
| < 25 nM | Cn1c(=O)oc2cc(C3CC3)c(-c3ccc(NC(=O)c4c(F)cccc4F)cc3)cc21 [Example 94, N-(4-(6-Cyclopropyl-3-methyl-2-oxo-2,3-dihydrobenzo [d]oxazol-5-yl)phenyl)-2,6-difluorobenzamide] |
| < 25 nM | O=C(Nc1ccc(-c2ccc3c(oc(=O)n3C(F)F)c2C2CC2)cc1)c1c(F)cccc1F [Example 95, N-(4-(7-Cyclopropyl-3-(difluoromethyl)-2-oxo-2,3-dihydrobenzo[d]oxazol-6-yl)phenyl)-2,6-difluorobenzamide] |
